For one experiment, the target named is T1, RAMP2-CLR (AM1 receptor) (Homo sapiens, UniProt O60895+Q16602).
T1 construct: FLAG; expressed in transfected cells; host or cells: HEK-293 or HEK-293S cells, transient transfection, 1:1 RAMP:CLR
The experiment can be described thus: S. cerevisiae growth assay, GPA1/Gαs chimera, RAMP2 + CLR. The format is cell-based. The following applies: percentage of yeast strain MMY11 (lacking GPA1); 20 h; mean ± S.E., n = 7. Here is the method:
FIGURE 1. […] Reporter gene activity was determined following 20 h of stimulation with each ligand. Data are expressed as a percentage of the maximum response observed in yeast strain MMY11 (lacking GPA1) and are means ± S.E. of n individual data sets. […] Data were determined as statistically different from the cognate ligand for each receptor (*, p < 0.05; **, p < 0.01; ***, p < 0.001) using a one-way ANOVA with Bonferroni's post-test.
General yeast procedures were performed as described previously ([22], [24]). The human CLR was introduced into yeast cells under the control of the PGK promoter using a plasmid containing ura3 (pDT-PGK). […] Receptor signaling was measured using the yeast growth assay as described previously ([24]). […] A fluorescein signal was detected as an increase in fluorescence (excitation wavelength = 485 nm, emission wavelength = 535 nm) as a measure of growth. Different concentrations of ligand (0.01 nM–100 μM) were assayed using 96-well plates, and fluorescence was detected using a Tecan Infinite M200 microplate reader (Tecan Ultra Evolution, Reading, UK) or a Mithras LB 940 microplate reader (Berthold Technologies, Harpenden, UK) for 20 h.
Data analysis for cAMP assays was performed in GraphPad Prism 6.0f (San Diego, CA). […] To quantitate the ligand-dependent response in the yeast system, a strain lacking GPA1 (MMY11), grown in rich medium, was used as a standard ([72]). […]

Another experiment concerns the target T2, RAMP3-CLR (AM2 receptor) (Homo sapiens, UniProt O60896+Q16602).
T2 construct: FLAG; expressed in transfected cells; host or cells: HEK-293 or HEK-293S cells, transient transfection, 1:1 RAMP:CLR
Put plainly: cAMP accumulation, HEK-293 cells, RAMP3 + CLR. The class given is cell-based. As to conditions: mean ± S.E. Here is the method: HEK-293 cells were transfected with FuGENE 6 (Roche Applied Science) in accordance with the manufacturer's instructions using a 1:3 (w:v) DNA:FuGENE ratio and a 1:1 ratio of RAMP to CLR. […] The transfected cell lines were grown for 24–48 h prior to assaying.
The transfected HEK-293 cells were washed in PBS, resuspended in stimulation buffer (PBS containing 0.1% BSA and 0.5 mM IBMX), and seeded at 2000 cells/well in 384-well white Optiplates. Ligands were added in the range of 1 pM to 1 mM, and cAMP accumulation was measured after 30 min of stimulation using a LANCE® cAMP detection kit (PerkinElmer Life Sciences). […] Plates were read using a Mithras LB 940 multimode microplate reader (Berthold Technologies). […] Values were converted to concentration using a cAMP standard curve performed in parallel.
Data analysis for cAMP assays was performed in GraphPad Prism 6.0f (San Diego, CA). Data were fitted to obtain concentration-response curves using either the three-parameter logistic equation (for pEC50 values) or the operational model for partial agonism ([34]) to obtain values of efficacy (log τ) and the equilibrium dissociation constant (log Ka). These values were then used to quantify signaling bias as change in log (τ/Ka) relative to the natural cognate ligand for the respective receptor ([41]). […] Statistical differences were analyzed using one-way ANOVA or Student's t test as appropriate with post hoc Bonferroni's or Dunnett's multiple comparisons, and p < 0.05 was considered significant. […] For RT-PCR, normalization to the internal standard GAPDH was performed to reduce variance and enable a comparison between different cell lines. To quantitate the ligand-dependent response in the yeast system, a strain lacking GPA1 (MMY11), grown in rich medium, was used as a standard ([72]). As GPA1 is not present in this strain, the Gβγ subunits are unregulated and free to signal, allowing us to determine the maximal response of our system. […] For the mammalian cell-based assays, data analysis was carried out as for the yeast curves. […]

T2 sequence (Q16602 23-461): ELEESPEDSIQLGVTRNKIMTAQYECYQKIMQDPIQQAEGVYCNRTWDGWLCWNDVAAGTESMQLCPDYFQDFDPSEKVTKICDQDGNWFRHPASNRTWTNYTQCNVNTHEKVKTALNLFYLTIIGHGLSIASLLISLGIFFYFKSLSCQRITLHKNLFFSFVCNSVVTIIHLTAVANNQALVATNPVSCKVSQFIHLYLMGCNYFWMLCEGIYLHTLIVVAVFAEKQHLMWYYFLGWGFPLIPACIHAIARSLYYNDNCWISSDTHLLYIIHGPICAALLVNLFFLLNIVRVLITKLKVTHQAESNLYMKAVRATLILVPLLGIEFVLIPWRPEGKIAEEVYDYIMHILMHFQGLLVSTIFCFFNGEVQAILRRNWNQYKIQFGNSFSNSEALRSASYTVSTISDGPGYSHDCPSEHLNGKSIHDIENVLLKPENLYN
T2 sequence (O60896 24-148): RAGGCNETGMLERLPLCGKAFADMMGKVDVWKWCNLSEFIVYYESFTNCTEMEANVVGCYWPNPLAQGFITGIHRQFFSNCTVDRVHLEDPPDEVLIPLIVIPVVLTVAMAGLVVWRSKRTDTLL
T1 sequence (Q16602 23-461): as the sequence (Q16602 23-461) above
T1 sequence (O60895 43-175): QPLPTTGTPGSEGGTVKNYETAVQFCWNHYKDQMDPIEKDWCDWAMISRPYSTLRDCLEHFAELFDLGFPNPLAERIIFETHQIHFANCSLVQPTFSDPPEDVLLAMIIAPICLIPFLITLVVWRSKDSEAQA

As for `CSCC[C@H](NC(=O)[C@H](CC(C)C)NC(=O)[C@H](CCC(N)=O)NC(=O)[C@H](Cc1c[nH]c2ccccc12)NC(=O)[C@H](CC(C)C)NC(=O)[C@H](CCCNC(=N)N)NC(=O)[C@H](Cc1c[nH]cn1)NC(=O)[C@H](CO)NC(=O)[C@H](CC(C)C)NC(=O)[C@H](CC(N)=O)NC(=O)[C@H](CCC(N)=O)NC(=O)[C@@H](NC(=O)[C@H](CCC(N)=O)NC(=O)[C@@H]1CSSC[C@H](NC(=O)CNC(=O)[C@@H](NC(=O)[C@H](CCCNC(=N)N)NC(=O)[C@H](CC(C)C)NC(=O)[C@H](CC(C)C)NC(=O)[C@H](CCC(N)=O)NC(=O)[C@H](C)NC(=O)[C@H](CCC(N)=O)NC(=O)[C@@H](N)[C@@H](C)O)C(C)C)C(=O)N[C@@H](C(C)C)C(=O)N[C@@H](CC(C)C)C(=O)NCC(=O)N[C@@H]([C@@H](C)O)C(=O)N1)C(C)C)C(=O)NCC(=O)N1CCC[C@H]1C(=O)N[C@@H](C)C(=O)NCC(=O)N[C@@H](CCCNC(=N)N)C(=O)N[C@@H](CCC(N)=O)C(=O)N[C@@H](CC(=O)O)C(=O)N[C@@H](CO)C(=O)N[C@@H](C)C(=O)N1CCC[C@H]1C(=O)N[C@H](C(=O)N[C@@H](CC(=O)O)C(=O)N1CCC[C@H]1C(=O)N[C@@H](CO)C(=O)N[C@@H](CO)C(=O)N1CCC[C@H]1C(=O)N[C@@H](Cc1c[nH]cn1)C(=O)N[C@@H](CO)C(=O)N[C@@H](Cc1ccc(O)cc1)C(N)=O)C(C)C` [AM2, adrenomedullin 2], the Emax on RAMP2-CLR (AM1 receptor) came out at 19.9 ± 2.5%.

On to `CC[C@H](C)[C@H](NC(=O)[C@H](CCC(N)=O)NC(=O)[C@H](Cc1c[nH]cn1)NC(=O)[C@H](C)NC(=O)[C@H](CC(C)C)NC(=O)[C@H](CCCCN)NC(=O)[C@H](CCC(N)=O)NC(=O)[C@@H](NC(=O)[C@@H](NC(=O)[C@@H]1CSSC[C@H](NC(=O)CNC(=O)[C@H](Cc2ccccc2)NC(=O)[C@H](CO)NC(=O)[C@H](CCCNC(=N)N)NC(=O)[C@H](CC(C)C)NC(=O)CNC(=O)[C@H](CCC(N)=O)NC(=O)[C@H](Cc2ccccc2)NC(=O)[C@H](CC(N)=O)NC(=O)[C@H](CC(N)=O)NC(=O)[C@H](CCSC)NC(=O)[C@H](CO)NC(=O)[C@H](CCC(N)=O)NC(=O)[C@H](CCCNC(=N)N)NC(=O)[C@@H](N)Cc2ccc(O)cc2)C(=O)N[C@@H](CCCNC(=N)N)C(=O)N[C@@H](Cc2ccccc2)C(=O)NCC(=O)N[C@@H]([C@@H](C)O)C(=O)N1)[C@@H](C)O)C(C)C)C(=O)N[C@@H](Cc1ccc(O)cc1)C(=O)N[C@@H](CCC(N)=O)C(=O)N[C@@H](Cc1ccccc1)C(=O)N[C@H](C(=O)N[C@@H](CC(=O)O)C(=O)N[C@@H](CCCCN)C(=O)N[C@@H](CC(=O)O)C(=O)N[C@@H](CCCCN)C(=O)N[C@@H](CC(=O)O)C(=O)N[C@@H](CC(N)=O)C(=O)N[C@H](C(=O)N[C@@H](C)C(=O)N1CCC[C@H]1C(=O)N[C@@H](CCCNC(=N)N)C(=O)N[C@@H](CO)C(=O)N[C@@H](CCCCN)C(=O)N[C@H](C(=O)N[C@@H](CO)C(=O)N1CCC[C@H]1C(=O)N[C@@H](CCC(N)=O)C(=O)NCC(=O)N[C@@H](Cc1ccc(O)cc1)C(N)=O)[C@@H](C)CC)C(C)C)[C@@H](C)O` [AM, adrenomedullin], for which the Emax at RAMP3-CLR (AM2 receptor) (HEK293, PTX treated (200 ng/ml, 16 h), percentage of maximal cAMP with 100 μM forskolin in presence of PTX, n = 7 (Table 3)) came out at 36 ± 2.2%; on RAMP3-CLR (AM2 receptor) (HEK293, percentage of maximal cAMP with 100 μM forskolin, HEK-293, 30 min, n = 9 (Table 2)) it was 32.1 ± 1.6%; on RAMP3-CLR (AM2 receptor) (HEK293, untreated, percentage of maximal cAMP with 100 μM forskolin in presence of PTX, n = 8 (Table 3)) it was 32 ± 1.5%.

Source of the values: publication PMC5063977 (The Journal of Biological Chemistry, 2016).
